Measurements as given in paper PMC6331934, “Study of the Biotransformation of Tongmai Formula by Human Intestinal Flora and Its Intestinal Permeability across the Caco-2 Cell Monolayer” (Molecules, 2015).

Legend:
[1] = Bidirectional transport across the Caco-2 cell monolayer (Papp, efflux ratio, mass balance); conditions: human; for recovery at 90 min, 50 μM: mass balance, total amount in AP and BL sides, incubation up to 90 min, n = 3
[2] = Time course of TMF constituents during anaerobic biotransformation by human intestinal flora; assay type: in vitro ADME; conditions: male, human, human intestinal flora (faecal suspension in GAM); incubation by HIF; read-out: Time of maximum concentration
Method: (§1) The general anaerobic medium (GAM) of HIF was prepared as follows: 10.0 g of tryptone, 10.0 g of proteose peptone, 13.5 g of digested serum powder, 5.0 g of yeast extract, 2.2 g of beef extract, 1.2 g of beef liver extract powder, 3.0 g of glucose, 2.5 g of KH2PO4, 3.0 g of NaCl, 5.0 g of soluble starch, 0.3 g of L-cysteine hydrochloride, and 0.3 g of sodium thioglycolate were dissolved in H2O. Adjust the pH of GAM solution to 7.1–7.2 with 1M NaOH aqueous solution and supply the total volume to 1 L. Ten grams of fresh feces obtained from a healthy volunteer, who had not taken any medicine in three months, were immediately homogenized and suspended in GAM (50 mL) solution. The HIF was undertaken according to the previous paper of our laboratory. Preparation of the biotransformation products of TMF by HIF was followed by the method of previous research.
(§2) A biotransformation system consisting of HIF (10 mL) and TMF (10 mg) was anaerobically incubated at 37 °C. All experiments were carried out in sextuplicate at each time point. The biotransformation reaction was stopped at 0.5, 1, 2, 4, 8, 12, 24, 36, 48, 60 h. The biotransformation solution was extracted with n-butanol (each 10 mL) three times. The combined n-butanol layer was evaporated to dryness under a gentle stream of nitrogen. MeOH (400 μL) was used to dissolve the residue which acted as a deproteinization agent. The resultant solution was vortex-mixed for 1 min and centrifuged at 16,000 g for 10 min at 4 °C. The supernatant was collected and filtered through a 0.22 μm filter as the test solution. The blank sample was prepared using TMF-free medium solution with the same processing steps. […] The column temperature was set at 30 °C and detection wavelength was set at 254 nm.

[3] = test system: human intestinal flora (HIF); experiment: as above; assay type: in vitro ADME; conditions: for Reduction of content (fold): after 60 h incubation by HIF; for Increase of content (fold): 60 h incubation by HIF
Method: as §1, §2

Caco-2 cell monolayer = experiment: Bidirectional transport across the Caco-2 cell monolayer (Papp, efflux ratio, mass balance); conditions: Caco-2 monolayer; classes after ref 18
[4] = test system: RAW 264.7 murine macrophages cells; parameters: method as in PMID 22644850; conditions: RAW 264.7 cells; compared with daidzin; cited from earlier work
in vitro = conditions: human
[5] = Caco-2, pH 7.4, Level (order of magnitude) of Papp, Caco-2 monolayer
[6] = Caco-2, pH 7.4, Total Recovery (%) AP→BL
[7] = Caco-2, pH 7.4, Total Recovery (%) BL→AP
[8] = Caco-2, pH 7.4, Absorption class by Papp, Caco-2 monolayer, classes after ref 18

Papp A→B at 90 min, 50 μM ([1]; Caco-2, pH 7.4) [×10⁻⁶ cm/s]	Papp B→A at 90 min, 50 μM ([1]; Caco-2, pH 7.4) [×10⁻⁶ cm/s]	efflux ratio at 1 h, 50 μM ([1]; Caco-2, pH 7.4)	Papp at 1 h, 50 μM [1, 5] [×10⁻⁶ cm/s]	recovery at 90 min, 50 μM [1, 6] [%]	recovery at 90 min, 50 μM [1, 7] [%]	SMILES	further results
1.29 ± 0.28	1.03 ± 0.09	0.8	~1	77	91.4	COc1ccc(C2=CC(=O)OC2Cc2ccc(O)cc2)c(OC2OC(CO)C(O)C(O)C2O)c1 (racemic) [Compound 8, (±)-puerol B-2″-O-glucopyranoside]	–
0.45 ± 0.02	0.29 ± 0.01	0.64	–	98.1	94.4	O=c1c(-c2ccc(O)c(O)c2)coc2c(C3OC(CO)C(O)C(O)C3O)c(O)ccc12 (stereo not drawn) [Compound 1, 3′-hydroxypuerarin]	Tmax [2]: 2 h
6.27 ± 0.81	8.3 ± 1.6	1.32	~1	86	90.9	O=C1C=C(c2ccc(O)cc2O)[C@@H](Cc2ccc(O)cc2)O1 [Compound 9, puerol A]	Increase of content (fold) [3]: more than 3 fold
30.64 ± 0.07	26.5 ± 1.1	0.87	~10	102	98	COc1ccc(-c2coc3cc(O)ccc3c2=O)cc1 [Compound 12, formononetin]	Increase of content (fold) [3]: more than 3 fold; Papp at 1 h, 50 μM [1, 8]: > 10 ×10⁻⁶ cm/s

The next lines start with the compound.

SMILES	Papp A→B at 90 min, 50 μM ([1]; Caco-2, pH 7.4) [×10⁻⁶ cm/s]	Papp B→A at 90 min, 50 μM ([1]; Caco-2, pH 7.4) [×10⁻⁶ cm/s]	efflux ratio at 1 h, 50 μM ([1]; Caco-2, pH 7.4)	Papp at 1 h, 50 μM [1, 5] [×10⁻⁶ cm/s]	recovery at 90 min, 50 μM [1, 6] [%]	recovery at 90 min, 50 μM [1, 7] [%]	further results
O=Cc1ccc(O)c(O)c1 [Compound 2, protocatechuic aldehyde]	–	–	–	–	–	–	Content remaining ([3]; at 60 h incubation by HIF): ~50%
O=c1c(-c2ccc(O)c(O)c2)coc2c([C@@H]3O[C@H](CO[C@@H]4OC[C@](O)(CO)[C@H]4O)[C@@H](O)[C@H](O)[C@H]3O)c(O)ccc12 [Compound 3, 3′-hydroxymirificin]	0.97 ± 0.01	0.53 ± 0.01	0.55	–	101	98.3	Content remaining ([3]; early stage (4 h) of incubation by HIF): ~25%
O=c1c(-c2ccc(O)cc2)coc2c([C@@H]3O[C@H](CO)[C@@H](O)[C@H](O)[C@H]3O)c(O)ccc12 [Compound 4, puerarin]	0.68 ± 0.02	0.41 ± 0.01	0.6	~0.1	96.6	95.7	Absorption class by Papp (Caco-2 cell monolayer): poorly absorbed
COc1cc(-c2coc3c(C4OC(CO)C(O)C(O)C4O)c(O)ccc3c2=O)ccc1O (stereo not drawn) [Compound 5, 3′-methoxypuerarin]	0.75 ± 0.09	0.47 ± 0.03	0.63	–	94.6	86.2	Content remaining ([3]; at 60 h incubation by HIF): ~50%
O=c1c(-c2ccc(O)cc2)coc2c([C@@H]3O[C@H](CO[C@@H]4OC[C@](O)(CO)[C@H]4O)[C@@H](O)[C@H](O)[C@H]3O)c(O)ccc12 [Compound 6, mirificin]	0.29 ± 0.01	0.23 ± 0.01	0.79	–	99.4	98.5	Reduction of content (fold) [3]: 10 fold
O=c1c(-c2ccc(O)cc2)coc2cc(O[C@@H]3O[C@H](CO)[C@@H](O)[C@H](O)[C@H]3O)ccc12 [Compound 7, daidzin]	0.4 ± 0.01	0.37 ± 0.01	0.92	–	99.8	98.5	Reduction of content (fold) [3]: 10 fold; Conversion by HIF ([3]; during the 60 h incubation by HIF): almost completely converted into daidzein (10); Papp at 1 h, 50 μM ([1]; Caco-2, pH 7.4): ~0.1 ×10⁻⁶ cm/s; Absorption class by Papp (Caco-2 cell monolayer): poorly absorbed
O=c1c(-c2ccc(O)cc2)coc2cc(O)ccc12 [Compound 10, daidzein]	–	–	–	–	–	–	Inhibitory effect on lipopolysaccharide-induced nitric oxide production [4]: stronger than that of daidzin; Papp A→B at 90 min, 50 μM (in vitro; Caco-2, pH 7.4): 25.5 ± 0.34 ×10⁻⁶ cm/s; Papp B→A at 90 min, 50 μM (in vitro; Caco-2, pH 7.4): 26.22 ± 0.01 ×10⁻⁶ cm/s; Papp at 1 h, 50 μM (in vitro; Caco-2, pH 7.4, Absorption class by Papp): > 10 ×10⁻⁶ cm/s; Papp at 1 h, 50 μM (in vitro; Caco-2, pH 7.4, Level (order of magnitude) of Papp): ~10 ×10⁻⁶ cm/s; recovery at 90 min, 50 μM (in vitro; [6]): 93.4%; recovery at 90 min, 50 μM (in vitro; [7]): 100%
O=c1c(-c2ccc(O)cc2)coc2cc(O)cc(O)c12 [Compound 11, genistein]	32.4 ± 3.86	37.7 ± 1.93	1.16	~10	86.7	75.7	Increase of content (fold) [3]: more than 3 fold; Papp at 1 h, 50 μM [1, 8]: > 10 ×10⁻⁶ cm/s
CC(C)NCC(O)COc1cccc2ccccc12 (stereo not drawn) [propranolol, reference compound]	–	–	–	–	–	–	Papp A→B at 1 h ([1]; Caco-2, pH 7.4): 33.7 ×10⁻⁶ cm/s
